Reference: US8329645B2, “Polymyxin derivatives and uses thereof” (priority 2008, dated 2012)
In brackets after ≈: the same amount, converted by molar mass. Read-outs that look alike come from different tables or passages of the source. Where a SMILES comes first, the peptide text is derived from it. Bridges are numbered along the chain shown (N, C = ends). [ ]: non-standard residue; d: D form. The star is where a group is joined. Decanoyl = CCCCCCCCCC(=O)*; Octanoyl = CCCCCCCC(=O)*; Dab = NCC[C@H](N)C(=O)O; Abu = CC[C@H](N)C(=O)O

Columns and labels:
E. coli IH3080 [1] = experiment: Growth inhibition around wells on LB agar plates; format: cell-based, Escherichia coli
Outline: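 Growth inhibition of encapsulated E. coli IH3080 (K1:O018) was assessed on LB agar plates. A suspension of about 10^8 cells/ml in 0.9% NaCl, made from an overnight LB agar culture, was spread across the plate surface and the excess removed. After drying, 2 mm wells were drilled, with 0.9% NaCl as control. Following 18 h at 37° C., inhibition zone diameters around wells were converted to areas in square mm.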

E. coli IH3080 [2] = experiment: Sensitization to rifampin: growth inhibition around wells on LB plates containing rifampin; format: cell-based, Escherichia coli; conditions: 4 μg of compound
[3] = target: brush-border membrane (BBM) from the renal cortex; experiment: Inhibition of binding of radiolabelled gentamycin to brush-border membrane vesicles; conditions: rat renal cortex BBM vesicles; 20 μM [3H] gentamycin; 60 min at 4° C.
Description: The binding of the compounds according to this invention to isolated brush-border membrane (BBM) from the renal cortex can be measured indirectly by measuring their ability to inhibit the binding of radiolabelled gentamycin to BBM. Accordingly, the compounds according to this invention that have less affinity to BBM than for example polymyxin B inhibit the binding of radiolabelled gentamycin to a lesser degree than does polymyxin B.
BBM was isolated from the renal cortex of male albino rats by using the Mg^2+/EGTA precipitation technique as described by Nagai et al. (2006). The binding of gentamycin was measured, according to the method described by Nagai et al. (2006) by incubating BBM vesicles (20 μl) in 10 mM HEPES (pH 7.5) with 300 mM mannitol in the presence of 20 μM [^3H] gentamycin (American Radiolabeled Chemicals, Inc. (St. Louis, Mo., U.S.A.) with or without the compound to be tested or a positive control. After an incubation of 60 min at 4° C., 1 ml of ice-cold buffer described above was added, and the mixture was filtered through a Millipore filter (0.45 μm; HAWP). The filter was washed with the buffer and the radioactivity remaining in the filter was measured by using a liquid scintillation counter. The IC50 values were determined as in Nagai et al. (2006) using the Hill equation.

C. albicans ATCC 28366 = test system: C. albicans ATCC 28366
Description: (§1) Polymyxin B sulfate (Sigma-Aldrich, St. Louis, Mo., USA) was used as a control. […] The bacterial test strains originated from ATCC (10 strains), CCUG (11 strains), and NCTC (3 strains). Fourteen (14) strains (the F-strains) were purchased from Mobidiag Ltd., Helsinki, Finland.
(§2) The inocula were prepared by adjusting the bacterial suspensions to a density equivalent to OD546 nm˜0.3 (˜10^8 CFU/ml˜0.5 McFarland) the yeast suspension to a density equivalent to OD546 nm˜0.75 (˜2×10^7 CFU/ml)._The suspensions were diluted to 10^7 CFU/ml. The plates were inoculated by using a Denley Multipoint Inoculator, 1 μl per spot corresponding to approx. 10^4 CFU/spot. Plates were incubated for 16-20 hours at 35° C.

E. cloacae F230 = test system: E. cloacae F230
Description: as §1, §2

E. coli F10 = test system: E. coli F10
Description: as §1, §2

E. coli F9 = test system: E. coli F9
Description: as §1, §2

E. coli F18 = format: cell-based, Escherichia coli
Description: The MIC values of NAB 739, NAB 740, and NAB7061 were determined by using the agar dilution method according to the CLSI protocol M7-A7. Polymyxin B sulfate (Sigma-Aldrich, St. Louis, Mo., USA) was used as a control. […]; two-fold increments) of the test substances were used. The bacterial test strains originated from ATCC (10 strains), CCUG (11 strains), and NCTC (3 strains). Fourteen (14) strains (the F-strains) were purchased from Mobidiag Ltd., Helsinki, Finland. Besides bacteria, the MIC was also determined for the yeast Candida albicans (ATCC 28366 from ATCC).
as §2

[4] = test system: Acinetobacter baumannii ATCC 19606; experiment: Growth inhibition around wells on LB agar plates; format: cell-based; conditions: A. baumannii ATCC 19606
A. baumannii ATCC 19606 = experiment: Sensitization to rifampin: growth inhibition around wells on LB plates containing rifampin; format: cell-based, Acinetobacter baumannii; conditions: 4 μg

Polymyxin B [reference compound]
growth inhibition around a well (E. coli IH3080 [1]; 4 μg of compound per well, listed as Polymyxin B sulfate): 95 square millimeters | growth inhibition around a well in the presence of rifampin (E. coli IH3080 [2]; rifampin 0 μg/ml): 79 square millimeters | growth inhibition around a well in the presence of rifampin (E. coli IH3080 [2]; rifampin 0.1 μg/ml): 95 square millimeters | growth inhibition around a well in the presence of rifampin (E. coli IH3080 [2]; rifampin 1.0 μg/ml): 104 square millimeters | IC50 [3]: 39.3 ± 5.5 µM | MIC (C. albicans ATCC 28366; C. albicans ATCC 28366): >32 µg/mL | MIC (E. cloacae F230; E. cloacae F230): 0.5 µg/mL | MIC (E. coli F10; E. coli F10): 0.5 µg/mL | MIC (E. coli F9; E. coli F9): 0.5 µg/mL | MIC (E. coli F18): 0.5 µg/mL

CCCCCCCCCC(=O)N[C@H](C(=O)N[C@H](CO)C(=O)N[C@H]1CCNC(=O)[C@H]([C@@H](C)O)NC(=O)[C@H](CCN)NC(=O)[C@H](CCN)NC(=O)[C@H](CC(C)C)NC(=O)[C@@H](Cc2ccccc2)NC(=O)[C@H](CCN)NC1=O)[C@@H](C)O [NAB 740, DA-Thr-DSer-cy[Dab-Dab-DPhe-Leu-Dab-Dab-Thr-]] (Decanoyl-T[dS][Dab][Dab][dF]L[Dab][Dab]T; lactam 3-C)
growth inhibition around a well (E. coli IH3080 [1]; 10 μg of compound per well): 133 square millimeters | growth inhibition around a well ([4]; 4 μg): 133 square millimeters | growth inhibition around a well ([4]; 10 μg): 201 square millimeters | growth inhibition around a well in the presence of rifampin (E. coli IH3080 [2]; rifampin 0 μg/ml): 95 square millimeters | growth inhibition around a well in the presence of rifampin (E. coli IH3080 [2]; rifampin 0.1 μg/ml): 95 square millimeters | growth inhibition around a well in the presence of rifampin (E. coli IH3080 [2]; rifampin 1.0 μg/ml): 95 square millimeters | growth inhibition around a well in the presence of rifampin (A. baumannii ATCC 19606; rifampin 0 μg/ml): 133 square millimeters | growth inhibition around a well in the presence of rifampin (A. baumannii ATCC 19606; rifampin 0.3 μg/ml): 154 square millimeters | IC50 [3]: 198 ± 49 µM | MIC (C. albicans ATCC 28366; ATCC 28366): >32 µg/mL | MIC (E. cloacae F230; F230): 2 µg/mL (≈ 1.81 µM) | MIC (E. coli F10; F10): 2 µg/mL (≈ 1.81 µM) | MIC (E. coli F9; F9): 2 µg/mL (≈ 1.81 µM) | MIC (E. coli F18): 2 µg/mL (≈ 1.81 µM)

CCCCCCCC(=O)N[C@H](C(=O)N[C@@H](CC)C(=O)N[C@H]1CCNC(=O)[C@H]([C@@H](C)O)NC(=O)[C@H](CCN)NC(=O)[C@H](CCN)NC(=O)[C@H](CC(C)C)NC(=O)[C@@H](Cc2ccccc2)NC(=O)[C@H](CCN)NC1=O)[C@@H](C)O [NAB 7061, OA-Thr-Abu-cy[Dab-Dab-DPhe-Leu-Dab-Dab-Thr-]] (Octanoyl-T[Abu][Dab][Dab][dF]L[Dab][Dab]T; lactam 3-C)
growth inhibition around a well (E. coli IH3080 [1]; 4 μg of compound per well): 0 square millimeters | growth inhibition around a well ([4]; 4 μg): 0 square millimeters | growth inhibition around a well ([4]; 10 μg): 0 square millimeters | growth inhibition around a well in the presence of rifampin (E. coli IH3080 [2]; rifampin 0 μg/ml): 0 square millimeters | growth inhibition around a well in the presence of rifampin (A. baumannii ATCC 19606; rifampin 0 μg/ml): 0 square millimeters | growth inhibition around a well in the presence of rifampin (A. baumannii ATCC 19606; rifampin 0.3 μg/ml): 50 square millimeters | MIC (C. albicans ATCC 28366; ATCC 28366): >32 µg/mL | MIC (E. cloacae F230; F230): >32 µg/mL | MIC (E. coli F10; F10): >32 µg/mL | MIC (E. coli F9; F9): >32 µg/mL | MIC (E. coli F18): >32 µg/mL

CCCCCCCC(=O)N[C@H](C(=O)N[C@H](CO)C(=O)N[C@H]1CCNC(=O)[C@H]([C@@H](C)O)NC(=O)[C@H](CCN)NC(=O)[C@H](CCN)NC(=O)[C@H](CC(C)C)NC(=O)[C@@H](Cc2ccccc2)NC(=O)[C@H](CCN)NC1=O)[C@@H](C)O [NAB 739, OA-Thr-DSer-cy[Dab-Dab-DPhe-Leu-Dab-Dab-Thr-]] (Octanoyl-T[dS][Dab][Dab][dF]L[Dab][Dab]T; lactam 3-C)
growth inhibition around a well ([4]; 4 μg): 113 square millimeters | growth inhibition around a well ([4]; 10 μg): 177 square millimeters | growth inhibition around a well in the presence of rifampin (E. coli IH3080 [2]; rifampin 0 μg/ml): 133 square millimeters | growth inhibition around a well in the presence of rifampin (E. coli IH3080 [2]; rifampin 0.1 μg/ml): 177 square millimeters | growth inhibition around a well in the presence of rifampin (E. coli IH3080 [2]; rifampin 1.0 μg/ml): 201 square millimeters | growth inhibition around a well in the presence of rifampin (A. baumannii ATCC 19606; rifampin 0 μg/ml): 113 square millimeters | growth inhibition around a well in the presence of rifampin (A. baumannii ATCC 19606; rifampin 0.1 μg/ml): 177 square millimeters | growth inhibition around a well in the presence of rifampin (A. baumannii ATCC 19606; rifampin 0.3 μg/ml): 314 square millimeters | IC50 [3]: 264 ± 91 µM | MIC (C. albicans ATCC 28366; ATCC 28366): >32 µg/mL | MIC (E. cloacae F230; F230): 2 µg/mL (≈ 1.86 µM) | MIC (E. coli F10; F10): 1 µg/mL (≈ 0.929 µM) | MIC (E. coli F9; F9): 1 µg/mL (≈ 0.929 µM) | MIC (E. coli F18): 1 µg/mL (≈ 0.929 µM)
